The values that follow come from patent publication US20250188417A1, “CARDIOMYOCYTES AND COMPOSITIONS AND METHODS FOR PRODUCING THE SAME” (President and Fellows of Harvard College, priority 2021, published 2025).

One assay relates to UCSD-CMs. The assay can be described thus: FluoVolt action potential profile. The format is cell-based, human. As to the method: FIG. 13A provides qPCR of selected ion channels (KCNJ2, CACNA1c, RY2, ATP2a2, SCN5a, HCN4) of iPSC-derived cardiomyocytes after treatment with Torin1 (10 nM or 200 nM) or vehicle control (0.02% DMSO) for 7 days starting ˜2 days after onset of beating. n=3 per group, *p<0.05, ****p<0.001 by two-way ANOVA with Tukey's multiple comparisons test, BJRiPS line. FIG. 13B provides flow cytometry analysis of mean fluorescence intensity of Kir2.1 (encoded by KCNJ2) after Torin1 treatment for 7 days starting ˜2 days after onset of beating. n=3 per group, *p<0.01 by unpaired t-test, BJRiPS line. […] FIG. 13D provides representative images showing cell segmentation performed automatically by the CyteSeer software. Blue=Hoechst stain, Green=FluoVolt. […] CTD25 (25% duration of the calcium transient, or duration at 25% decline from maximum amplitude), CTD75 (75% duration of the calcium transient, or duration at 75% decline from maximum amplitude), T75-25 (time for voltage to decay from 75% to 25% of maximum). […] For Fluovolt data, control n=531 cells, Torin1 n=315 cells, analysis by unpaired t-test.

For assay [1], the system named is iPSC-derived cardiomyocytes. The assay can be described thus: Muscular thin film (MTF) contractility. The format is cell-based, human. The following applies: Torin1 200 nM for 7 days; muscular thin films. The procedure:
(§1) FIG. 11A provides qPCR of selected sarcomere genes (MYH6, MYH7, TNNT2, TNNI3) iPSC-derived cardiomyocytes after treatment with Torin1 (10 nM, 50 nM, or 200 nM) or vehicle control (0.02% DMSO) for 7 days starting ˜2 days after onset of beating. n=3 per condition, *p<0.05, ****p<0.001 by two-way ANOVA with Tukey's multiple comparisons test, BJRiPS-CMs. FIG. 11B provides representative of western blot analysis of TNNT2 and TNNI3 after Torin1 treatment for 7 days starting ˜2 days after onset of beating, β-tubulin depicted as loading control, Gibco iPS-CMs. […] FIG. 11D provides representative image of MTF in diastole and systole, with schematic of MTF on side view in diastole and systole. FIG. 11E provides representative force versus time plot of muscular thin film (MTF) seeded with iPSC-derived cardiomyocytes treated with Torin1 (200 nM) or vehicle for 7 days starting ˜2 days after onset of beating, BJRiPS-CMs. […] FIG. 11G provides representative immunostained images showing cardiomyocytes treated with or without Torin1 (200 nM×7 days), blue=DAPI, green=alpha-actinin, yellow=F-actin, magenta=TNNT2, BJRiPS-CMs, scale bar=10 μm. […] DMSO, dimethylsulfoxide; TBP, TATA-binding protein.

Assay [2] has as its system BJRiPS-CMs. As to the kind of experiment: Mitochondrial polarization (MitoProbe JC-1). Type of assay: cell-based, human. The note with it: Torin1 200 nM for 7 days.
Assay [3] relates to BJRiPS-CMs. The assay can be described thus: Sarcomere length by immunostaining. Type of assay: cell-based, human. The note with it: Torin1 200 nM×7 days versus control; unpaired t-test; FIG. 11H. The procedure: as §1
Assay [4] relates to iPSC-derived cardiomyocytes (CMs). The assay can be described thus: Quiescence, cell cycle and TNNT2+ flow cytometry after Torin1 treatment. The format is cell-based, human. The procedure: FIG. 10A provides a schematic of a differentiation protocol, with Torin1 treatment performed for 7 days starting ˜2 days after onset of beating, unless otherwise noted. FIG. 10B provides a western analysis of phospho-S6 and phospho-Akt at baseline and 30 minutes, and 2, 4, 10, 24, and 48 hours after a single treatment of iPSC-derived CMs with Torin1 (200 nM), BJRiPS-CMs. […] Torin1 treatment started on day 9, approximately 2 days after onset of CM beating, BJRiPS-CMs, n=3 per group per time point. […] DMSO, dimethylsulfoxide; IWP-4, inhibitor of Wnt production-4; RI, ROCK (Rho-associated, coiled coil containing protein kinase) inhibitor (Y-27632); RPMI, Roswell Park Memorial Institute 1640 medium.
A general note: A flow cytometer gives signals particle by particle.

Another assay relates to Gibco iPS-CM. As to the kind of experiment: Western blot of p53 after Torin1 treatment. The following applies: Torin1 10, 50 or 200 nM for 7 days. The format is cell-based, human. As to the method:
(§2) FIG. 14A provides representative western blot of p53, phospho-53, p21 (CDKN1a), GATA4, NKX2.5, and β-tubulin from Gibco iPS-CM lysates treated with 0 (DMSO), 10, 50, or 200 nM Torin1 for 7 days starting ˜2 days after onset of beating. Cells harvested on final day of treatment. FIG. 14B provides cell cycle analysis showing percentage of TNNT2+ BJRiPS-CMs in G0, G1 or S/G2/M phases after treatment with vehicle (DMSO, dimethylsulfoxide), pifithrin-α (10 μM) for 1 week, Torin1 (200 nM) for 7 days or simultaneous treatment with pifithrin-α (10 μM) and Torin1 (200 nM) for 7 days starting ˜2 days after onset of beating. n=3 per group, *p<0.05, **p<0.01, ***p<0.001, ****p<0.0001 by two-way ANOVA with Tukey's multiple comparisons test. FIG. 14C provides representative western blot of p53, TNNI3, p21, and β-tubulin from BJRiPS-derived cardiomyocyte lysates treated with control (DMSO), Torin1 (200 nM), pifithrin-α (10 PM) or Torin1 (200 nM)+pifithrin-α (10 μM) for 7 days beginning ˜2 days after onset of beating. Cells harvested on final day of treatment.

Assay [5] concerns BJRiPS-CMs. As to the kind of experiment: Seahorse Mito Stress Test oxygen consumption rate. The format is cell-based, human. The note with it: Torin1 200 nM×7 days; normalized to baseline. The procedure: FIG. 12A provides a profile of average oxygen consumption rate normalized to baseline versus time as evaluated by the Seahorse Mito Stress Test. Open circles=control (n=70 wells), closed squares=Torin1 (69 wells, 200 nM×7 days; BJRiPS-CMs replated into Seahorse plate for 24-48 hours prior to assay), data from two independent experiments combined. […] FIG. 12F provides qPCR of selected genes associated with fatty acid metabolism (PPARGC1a (PGC1α), CD36, SLC27A1 (FATP1), SLC27A6 (FATP6), and LPIN1) or glucose metabolism (GLUT1, GLUT4, PFK, and PYGM) of BJRiPS-CMs after treatment with Torin1 (10 nM, 50 nM, or 200 nM) or vehicle control (0.02% DMSO) for 7 days starting ˜2 days after onset of beating. *p<0.05, **p<0.01, ***p<0.001, ****p<0.0001 by two-way ANOVA with Tukey's multiple comparison's test, n=3 per group. DMSO, dimethylsulfoxide; FCCP, 2-[2-[4-(trifluoromethoxy)phenyl]hydrazinylidene]-propanedinitrile.

The subject of another assay is PSC-CMs. The note with it: inhibition of mTOR signaling during late differentiation; previously suggested; cited from earlier work.
In assay [6] the test system is BJRiPS-CMs. As to the kind of experiment: qPCR of sarcomere genes and ion channels after Torin1 treatment. Type of assay: cell-based, human. As to the method: FIG. 11A provides qPCR of selected sarcomere genes (MYH6, MYH7, TNNT2, TNNI3) iPSC-derived cardiomyocytes after treatment with Torin1 (10 nM, 50 nM, or 200 nM) or vehicle control (0.02% DMSO) for 7 days starting ˜2 days after onset of beating. n=3 per condition, *p<0.05, ****p<0.001 by two-way ANOVA with Tukey's multiple comparisons test, BJRiPS-CMs. FIG. 11B provides representative of western blot analysis of TNNT2 and TNNI3 after Torin1 treatment for 7 days starting ˜2 days after onset of beating, β-tubulin depicted as loading control, Gibco iPS-CMs. […] FIG. 11D provides representative image of MTF in diastole and systole, with schematic of MTF on side view in diastole and systole. […]
FIG. 13A provides qPCR of selected ion channels (KCNJ2, CACNA1c, RY2, ATP2a2, SCN5a, HCN4) of iPSC-derived cardiomyocytes after treatment with Torin1 (10 nM or 200 nM) or vehicle control (0.02% DMSO) for 7 days starting ˜2 days after onset of beating. n=3 per group, *p<0.05, ****p<0.001 by two-way ANOVA with Tukey's multiple comparisons test, BJRiPS line. FIG. 13B provides flow cytometry analysis of mean fluorescence intensity of Kir2.1 (encoded by KCNJ2) after Torin1 treatment for 7 days starting ˜2 days after onset of beating. n=3 per group, *p<0.01 by unpaired t-test, BJRiPS line. […]
In general terms: Real-time PCR tracks product formation cycle by cycle.

Assay [7] relates to BJRiPS-CMs. As to the kind of experiment: Western blot and densitometry (MDM2, p53, TNNI3) and cell cycle analysis of BJRiPS-derived cardiomyocytes. Type of assay: cell-based, human. The note with it: pifithrin-α 10 μM with Torin1 200 nM for 7 days. The procedure: FIG. 6A provides a schematic showing proposed mechanism of cardiomyocyte maturation. T3, triiodothyronine. […] FIG. 6C provides representative Western blot of MDM2, p53, TNNI3, and β-tubulin from BJRiPS-derived cardiomyocyte lysates treated with control (DMSO), nutlin-3a Å˜24 hours (10 μmol/L), Torin1 Å˜7 days (200 nmol/L), or Torin1 Å˜7 days (200 nmol/L)+nutlin-3a (10 μmol/L) for 24 hours beginning ≈2 days after onset of beating (nutlin-3a was only administered during the first 24 hours of Torin1 treatment). Cells harvested on final day of treatment, BJRiPS-CMs. […] DMSO indicates dimethylsulfoxide; mTOR, mechanistic target of rapamycin; and TNNT2+ BJRiPS-CMs, troponin T2, cardiac type-positive BJ fibroblast-derived RNA-induced pluripotent stem cell-derived cardiomyocytes.
as §2
Background: A western blot detects proteins with antibodies after separation by electrophoresis.

With `CCC(=O)N1CCN(c2ccc(-n3c(=O)ccc4cnc5ccc(-c6cnc7ccccc7c6)cc5c43)cc2C(F)(F)F)CC1` [Torin1], in the assay on UCSD-CMs (FluoVolt, FIG. 13F), the “peak rise time of the action potential profile” value is “increases”. For the same compound, the “downstroke velocity of the action potential profile” value in the assay with UCSD-CMs (FluoVolt, FIG. 13G) was “increases”. The CTD25 time entry in the assay on UCSD-CMs (FluoVolt, versus control, unpaired t-test, FIG. 13H) is “n.s”. The “plateau phase of the action potential profile” value in the assay on UCSD-CMs (representative profile versus control, FIG. 13E) is on record as “more prolonged”. For the same compound, the contractility result in [1] is “enhances”. For the same compound, in the assay with BJRiPS-CMs [2], the mitochondrial polarization result is listed as “increases”. For the same compound, in the assay with BJRiPS-CMs [3], the sarcomere length entry is recorded as “n.s”. The cellular quiescence result in assay [4] (Torin1 for 7 days starting about 2 days after onset of beating) was “increases”; with PSC-CMs, “induces”. The “percentage of TNNT2+ CMs out of live cell population” value in assay [4] (flow cytometry, Gibco iPS-CMs, one-way ANOVA, FIG. 10D) is “n.s”. The p53 expression result in the assay with Gibco iPS-CM is recorded as “increases”. Besides, the oxygen consumption rate entry in the assay with BJRiPS-CMs [5] is “increases”. Also, the maturation of cardiomyocytes result in the assay on PSC-CMs is given as “enhances”. Moreover, in the assay with BJRiPS-CMs [6] (Torin1 10 nM or 200 nM for 7 days), the “expression selected ion channels” value is given as “increases”. Besides, the “expression of sarcomere genes (MYH6, MYH7, TNNT2, TNNI3)” value with BJRiPS-CMs [6] (Torin1 10, 50 or 200 nM for 7 days) is reported as “increases”.

As for `Cc1ccc(C(=O)Cn2c3c(sc2=N)CCCC3)cc1` [pifithrin-α], the “effects of Torin1 (cell cycle, TNNI3)” value with BJRiPS-CMs [7] was “inhibited”.
